Entries after “also recorded” stand apart in the source; their conditions may differ.

For assay [1] the following is noted: humans; cited from earlier work.
In assay [2] the test system is serotonin uptake (synaptosomes from rat brain). Nature of the assay: blockade of serotonin (5HT) uptake by synaptosomes from rat brain, in vitro, radioactive labelled compounds. The format is biochemical. The conditions noted are these: serotonin 0.1 μM. The text has this:
(§1) This blockade is shown both in vitro with radioactive labelled compounds to determine the amount of monoamine uptake by synaptosomes from rat brain, and in vivo by a variety of methods. Among the physiologically active monoamines whose uptake is blocked by the compounds of this invention are included particularly serotonin (5HT) and norepinephrine(3,4-dihydroxyphenylethanolamine). […] Tables 1 and 2 which follow set forth the results of some of the in vitro determinations of the blockade of monoamine uptake by the compounds of this invention. In the tables, column 1 gives the R substituent on the 3-phenylpropylamine and columns 2-4, the concentration in micrograms per ml. that blocks the uptake by 50 percent of the monoamines--norepinephrine, serotonin, and dopamine. At the head of each column is given the concentration of the particular monoamine used in the experiment.

The test system of assay [3] is dopamine uptake (synaptosomes from rat brain). Nature of the assay: blockade of dopamine uptake by synaptosomes from rat brain, in vitro, radioactive labelled compounds. The conditions noted are these: dopamine 0.2 μM. The format is biochemical.
Source text: as §1

Assay [4] has as its system norepinephrine uptake (synaptosomes from rat brain). Nature of the assay: blockade of norepinephrine uptake by synaptosomes from rat brain, in vitro, radioactive labelled compounds. The format is biochemical. The conditions noted are these: norepinephrine 0.48 μM.
Source text: as §1

A further assay deals with NE uptake and 5HT uptake. Nature of the assay: NE/5HT uptake inhibition selectivity. It counts as biochemical, rat. The conditions noted are these: for NE/5HT IC50 uptake ratio: ratio NE/5HT.
Source text: as §1

As for `CNCCC(Oc1ccc(C(F)(F)F)cc1)c1ccccc1` (stereo not drawn) [fluoxetine, 3-phenyl-3-(p-trifluoromethyl)phenoxypropyl methylamine], the antidepressant effect result in assay [1] is “highly potent antidepressant in humans”.

Consider `Cc1ccccc1OC(CCN(C)C)c1ccccc1` (stereo not drawn) [o-tolyloxy, 3-o-tolyloxy-3-phenylpropyl dimethylamine], for which the “Concentration that blocks 50% of serotonin uptake” value in assay [2] came out at 2 µg/mL. Moreover, the “Concentration that blocks 50% of dopamine uptake” value in assay [3] amounted to 0.8 µg/mL. Further, the “Concentration that blocks 50% of norepinephrine uptake” value in assay [4] is “.35 µg/mL”. Moreover, in the assay with NE uptake and 5HT uptake (5HT vs NE, listed as IV), the “uptake inhibition selectivity in words” value is “selective NE uptake inhibitors; also recorded: blocks NE preferentially”. The “NE/5HT IC50 uptake ratio” value in the assay with NE uptake and 5HT uptake is “.5”.

In the case of `CN(C)CCC(Oc1ccc(Cl)cc1)c1ccccc1` (stereo not drawn) [p-chlorophenoxy, N,N-dimethyl 3-phenyl-3-(p-chlorophenoxy)-propylamine], in assay [2], the “Concentration that blocks 50% of serotonin uptake” value is “.03 µg/mL”. For the same compound, in assay [3], the “Concentration that blocks 50% of dopamine uptake” value is 1.3 µg/mL. Further, in assay [4], the “Concentration that blocks 50% of norepinephrine uptake” value was “.3 µg/mL”. Moreover, the “NE/5HT IC50 uptake ratio” value in the assay with NE uptake and 5HT uptake is on record as 9.88.

Consider `Cc1ccc(OC(CCN(C)C)c2ccccc2)cc1` (stereo not drawn) [p-tolyloxy, N,N-dimethyl 3-(p-tolyloxy)-3-phenylpropylamine], for which the “Concentration that blocks 50% of serotonin uptake” value in assay [2] was “.4 µg/mL”. Also, in assay [3], the “Concentration that blocks 50% of dopamine uptake” value is above 100 µg/mL. In addition, the “Concentration that blocks 50% of norepinephrine uptake” value in assay [4] was “.015 µg/mL”. Besides, the “NE/5HT IC50 uptake ratio” value with NE uptake and 5HT uptake is 5.83.

Turning to `CN(C)CCC(Oc1ccc(C(F)(F)F)cc1)c1ccccc1` (stereo not drawn) [p-trifluoromethylphenyloxy, N,N-dimethyl-3-(p-trifluoromethylphenoxy)-3-phenylpropylamine], in assay [2], the “Concentration that blocks 50% of serotonin uptake” value was “.16 µg/mL”. For the same compound, the “Concentration that blocks 50% of dopamine uptake” value in assay [3] was above 100 µg/mL. The “Concentration that blocks 50% of norepinephrine uptake” value in assay [4] worked out at 70 µg/mL. The “NE/5HT IC50 uptake ratio” value in the assay on NE uptake and 5HT uptake was determined as 7.19.

The values are drawn from US4584404A, “Substituted phenoxyphenylproply dimethylamines” (priority 1983, dated 1986).
